{"source": "patent US8067424B2", "about": "“Selective inhibitors for cyclin-dependent kinases” (Emory University, priority 2007, dated 2011)", "key": {"MCF-7": {"tested_on": "MCF-7", "experiment": "Growth assay (SRB, 72 hours)", "type": "cell-based", "details": "MCF-7, 72 hours; for IC50 / CC50: Homo sapiens, MCF7; for IC50: read-out: Growth Inhibition MCF7 IC50; for CC50: read-out: Growth Inhibition MCF7 LC50", "method": "Growth assay: The cell lines (MCF-7 and MDA-MB-231; purchased from ATCC, USA) were routinely passaged in Dulbecco's Modified Eagle's Medium (DMEM), supplemented with 10% fetal calf serum (FCS) and kept in a 37° C. incubator with 5% CO2. For the growth assay, 6000 cells were seeded into each well of 96-well plates in DMEM containing 10% FCS. Compounds prepared in DMSO were added to the medium at concentrations ranging from 0.4-100 μM. The cells were incubated for a further 72 hours, at which time they were fixed by the addition of 100 μl/well of ice-cold 40% TCA. The plates were left for 1 hour, washed in water and 100 μl of 0.4% (w/v) sulphorhodamine (SRB; Sigma-Aldrich, UK) prepared in 1% acetic acid was added. Plates were washed in 1% acetic acid to remove excess SRB reagent, air dried and bound dye was solubilized by the addition of 100 μl of 10 mM Tris base. The plates were read at 492 nm using a plate reader."}, "CDK4 [1]": {"target": "T1, CDK4 (Homo sapiens, UniProt P11802)", "T1 sequence (P11802 whole entry)": "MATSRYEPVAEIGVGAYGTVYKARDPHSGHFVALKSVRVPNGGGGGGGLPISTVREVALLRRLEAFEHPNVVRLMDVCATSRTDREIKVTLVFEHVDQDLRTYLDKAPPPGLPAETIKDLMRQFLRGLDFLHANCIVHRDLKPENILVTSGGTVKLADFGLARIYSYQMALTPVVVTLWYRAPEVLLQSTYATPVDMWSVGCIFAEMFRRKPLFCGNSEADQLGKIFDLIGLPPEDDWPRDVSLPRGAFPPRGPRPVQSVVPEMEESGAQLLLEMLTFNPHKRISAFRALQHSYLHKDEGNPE", "T1 sequence (P24385 whole entry partner)": "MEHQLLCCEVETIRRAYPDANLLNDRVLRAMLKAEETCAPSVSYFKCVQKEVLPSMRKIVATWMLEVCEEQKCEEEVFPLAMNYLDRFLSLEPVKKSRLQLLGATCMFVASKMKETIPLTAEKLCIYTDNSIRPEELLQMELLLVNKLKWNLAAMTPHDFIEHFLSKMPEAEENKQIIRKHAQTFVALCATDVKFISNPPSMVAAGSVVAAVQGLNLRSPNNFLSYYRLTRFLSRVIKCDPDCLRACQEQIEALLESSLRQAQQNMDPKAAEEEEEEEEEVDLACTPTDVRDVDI", "experiment": "32P incorporation kinase assay, CDK4"}, "CDK4 [2]": {"target": "T1, CDK4", "experiment": "CDK4 in vitro kinase inhibition (protocol similar to Example 14)", "type": "biochemical", "details": "for remaining activity at 0.1 µM: 100 nM, mean of three (standard deviation), read-out: CDK4 % remaining kinase activity after incubation with 100 nM of compound; for IC50: Table 7, mean of three experiments", "method": "(§1) Prepared test compounds, prepared at concentrations of 1000, 100, 10, 1 and 0.1 μM. Diluted 1 in 40 in ddH2O and added 1 μl of test compound or DMSO (controls). • 3. Incubated at 30° C. for 30 mins in a water bath. • 4. Added 10 µl of ATP […] per reaction to get a final concentration of 2 μM ATP. • 5. Made up to 25 μl total volume with ddH2O • 6. Incubated for 20 min at 30° C. in a water bath • 7. Used the PKLight Kinase assay (Cambrex, UK), add to each reaction 10 μl of stop reaction and mix thoroughly. Incubated at room temp for 10 min. • 8. Added 20 μ1 Luciferase reaction mixture (Cambrex, UK) per reaction, and further incubated at room temp for 10 mins and determined luciferase activities according to manufacturer's methods. Kinase reactions were added to 96 well microplates and luciferase activities determined using a Packard TopCount NXT™ luminescent counter (TopCount 9904). The luminometer was programmed to take a read time of 0.1 integrated reading and emission of light was detectable at 560 nm. • 9. All kinase inhibition assays were carried out in triplicate. As the bioluminescent signal is inversely proportional to kinase activity, all values were deducted from the no enzyme control. These values were then plotted utilizing the enzyme control as a reference to 100% activity and compared to all other values.\n(§2) This example provides in vitro kinase inhibition data for various compounds within the scope of the invention versus CDK 2, CDK 4, CDK, 5, CDK 7 and CDK 9. The protocol was similar to that shown in Example 14 Inhibition of the protein kinases was performed in triplicate using each compound at 100 nM.\n(§3) This example provides in vitro kinase inhibition data for various compounds within the scope of the invention versus CDK 2, CDK 4, CDK, 5, CDK 7 and CDK 9."}, "CDK 5": {"target": "CDK 5 (Homo sapiens, UniProt Q00535)", "sequence (Q00535 whole entry)": "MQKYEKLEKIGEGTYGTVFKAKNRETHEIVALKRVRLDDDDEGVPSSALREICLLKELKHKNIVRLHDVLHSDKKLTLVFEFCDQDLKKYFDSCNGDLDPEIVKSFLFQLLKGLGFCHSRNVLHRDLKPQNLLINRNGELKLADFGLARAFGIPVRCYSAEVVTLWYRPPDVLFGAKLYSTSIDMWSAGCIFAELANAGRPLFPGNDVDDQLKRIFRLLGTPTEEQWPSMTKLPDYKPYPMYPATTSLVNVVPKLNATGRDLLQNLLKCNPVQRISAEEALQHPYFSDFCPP", "sequence (Q15078 whole entry partner)": "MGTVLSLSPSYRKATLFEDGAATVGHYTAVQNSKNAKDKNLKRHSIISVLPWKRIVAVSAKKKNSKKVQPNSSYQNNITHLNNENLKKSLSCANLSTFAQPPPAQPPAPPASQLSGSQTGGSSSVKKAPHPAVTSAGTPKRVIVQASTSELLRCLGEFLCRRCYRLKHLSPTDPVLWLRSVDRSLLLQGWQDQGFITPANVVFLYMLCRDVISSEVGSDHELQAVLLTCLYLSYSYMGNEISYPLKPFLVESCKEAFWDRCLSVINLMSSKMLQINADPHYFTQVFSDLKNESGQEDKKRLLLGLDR", "experiment": "CDK5 in vitro kinase inhibition (protocol similar to Example 14)", "type": "biochemical", "details": "100 nM; mean of three (standard deviation); read-out: CDK5 % remaining kinase activity after incubation with 100 nM of compound", "method": "as §1, §2, §3"}, "CDK2/cyclin A complex": {"target": "T2, CDK2/cyclin A complex (Homo sapiens, UniProt P24941)", "T2 construct": "purchased Proqinase GmbH, Germany", "experiment": "CDK2/cyclin A kinase assay (as for CDK7)", "type": "biochemical", "details": "for remaining activity at 0.1 µM: 100 nM, mean of three (standard deviation), read-out: CDK2 % remaining kinase activity after incubation with 100 nM of compound", "summary_of_the_method": "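Run as the CDK7 protocol with 50 ng CDK2/cyclin A or 100 ng CDK9/cyclin T; compound 30 min at 30 °C, then 2 μM ATP final for 20 min at 30 °C. ATP depletion by luciferase luminescence (PKLight), triplicate, normalised to no-enzyme and enzyme controls.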"}, "CDK9/cyclin T complex": {"target": "T3, CDK9/cyclin T complex (Homo sapiens, UniProt P50750)", "T3 construct": "purchased Proqinase GmbH, Germany", "T3 sequence (P50750 whole entry)": "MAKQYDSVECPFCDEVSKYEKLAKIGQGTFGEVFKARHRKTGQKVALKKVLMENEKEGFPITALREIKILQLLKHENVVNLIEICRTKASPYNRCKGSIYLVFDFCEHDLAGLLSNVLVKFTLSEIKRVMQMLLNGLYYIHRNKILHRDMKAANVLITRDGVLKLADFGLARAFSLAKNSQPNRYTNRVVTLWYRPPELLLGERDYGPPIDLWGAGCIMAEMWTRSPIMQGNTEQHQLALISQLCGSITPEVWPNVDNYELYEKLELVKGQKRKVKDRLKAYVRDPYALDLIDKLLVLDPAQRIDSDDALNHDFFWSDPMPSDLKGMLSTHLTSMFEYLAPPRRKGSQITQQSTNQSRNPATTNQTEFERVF", "T3 sequence (O60563 whole entry partner)": "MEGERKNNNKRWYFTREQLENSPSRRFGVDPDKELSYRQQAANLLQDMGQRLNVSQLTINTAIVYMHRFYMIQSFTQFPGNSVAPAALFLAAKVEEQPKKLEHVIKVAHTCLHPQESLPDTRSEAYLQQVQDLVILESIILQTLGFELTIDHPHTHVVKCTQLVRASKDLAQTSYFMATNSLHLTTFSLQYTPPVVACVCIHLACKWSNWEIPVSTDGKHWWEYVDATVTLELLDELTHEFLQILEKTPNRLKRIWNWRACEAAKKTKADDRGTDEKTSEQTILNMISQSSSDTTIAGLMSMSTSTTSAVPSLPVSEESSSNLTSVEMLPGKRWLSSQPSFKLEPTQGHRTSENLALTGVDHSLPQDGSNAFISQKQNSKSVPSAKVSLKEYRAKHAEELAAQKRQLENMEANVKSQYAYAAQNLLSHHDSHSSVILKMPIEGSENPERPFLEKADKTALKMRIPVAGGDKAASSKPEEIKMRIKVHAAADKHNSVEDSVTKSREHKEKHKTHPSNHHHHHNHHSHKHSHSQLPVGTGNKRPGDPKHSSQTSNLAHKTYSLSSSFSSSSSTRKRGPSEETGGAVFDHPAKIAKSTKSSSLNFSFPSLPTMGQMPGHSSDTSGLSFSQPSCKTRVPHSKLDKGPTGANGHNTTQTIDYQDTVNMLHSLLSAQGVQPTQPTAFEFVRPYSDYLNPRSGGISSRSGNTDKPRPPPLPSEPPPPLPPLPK", "experiment": "CDK9/cyclin T kinase assay (as for CDK7)", "type": "biochemical", "details": "100 nM; mean of three (standard deviation); read-out: CDK9 % remaining kinase activity after incubation with 100 nM of compound", "method": "as §1\nInhibition of CDK2 was assessed using 50 ng CDK2/cyclin A complex (Proqinase GmbH, Germany), as above for CDK7 Inhibition of CDK9 was assessed using 100 ng CDK9/cyclin T complex (Proqinase GmbH, Germany), as above for CDK7."}, "MCF-7 cell line": {"tested_on": "MCF-7 cell line", "experiment": "cells", "type": "cell-based", "details": "Homo sapiens, MCF-7, SRB assay, 24 hours; for LC50 (concentration causing 50% net cell kill) / IC (total growth inhibition): MCF7, 24 h; for IC (total growth inhibition): read-out: TGI; for IC50: MCF7, mean of three experiments, read-out: IC50"}, "CAK (CDK7)": {"target": "CAK (CDK7) (Homo sapiens, UniProt P50613)", "sequence (P50613 whole entry)": "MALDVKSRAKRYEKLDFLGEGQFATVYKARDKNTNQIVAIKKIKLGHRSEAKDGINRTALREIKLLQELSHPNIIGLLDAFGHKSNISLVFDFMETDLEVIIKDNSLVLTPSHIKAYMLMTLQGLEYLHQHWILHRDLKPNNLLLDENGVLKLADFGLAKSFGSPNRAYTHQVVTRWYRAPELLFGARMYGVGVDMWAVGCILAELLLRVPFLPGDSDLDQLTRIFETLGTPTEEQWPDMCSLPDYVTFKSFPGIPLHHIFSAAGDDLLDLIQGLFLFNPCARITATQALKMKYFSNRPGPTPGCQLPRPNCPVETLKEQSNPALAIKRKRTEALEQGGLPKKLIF", "sequence (P51946 whole entry partner)": "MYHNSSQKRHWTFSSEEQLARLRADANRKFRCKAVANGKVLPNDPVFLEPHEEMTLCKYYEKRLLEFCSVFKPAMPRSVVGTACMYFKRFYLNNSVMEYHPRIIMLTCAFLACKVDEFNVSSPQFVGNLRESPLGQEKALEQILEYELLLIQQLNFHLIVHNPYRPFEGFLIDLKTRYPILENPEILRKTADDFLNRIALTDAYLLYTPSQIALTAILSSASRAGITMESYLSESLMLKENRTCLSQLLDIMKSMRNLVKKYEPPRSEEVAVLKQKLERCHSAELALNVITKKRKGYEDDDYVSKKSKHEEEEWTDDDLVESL", "sequence (P51948 whole entry partner)": "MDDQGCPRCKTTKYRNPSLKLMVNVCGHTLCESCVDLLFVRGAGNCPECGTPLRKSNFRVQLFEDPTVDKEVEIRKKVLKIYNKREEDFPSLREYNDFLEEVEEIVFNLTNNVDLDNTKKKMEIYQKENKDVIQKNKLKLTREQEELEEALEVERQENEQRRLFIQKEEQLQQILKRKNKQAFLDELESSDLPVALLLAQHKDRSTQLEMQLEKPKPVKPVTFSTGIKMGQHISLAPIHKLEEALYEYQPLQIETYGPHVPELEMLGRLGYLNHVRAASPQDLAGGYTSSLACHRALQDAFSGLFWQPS", "experiment": "32P incorporation kinase assay, CAK"}}, "data": [{"smiles": "CC(C)c1cnn2c(NCc3ccccc3)cc(NCCCCCCC#N)nc12", "note": "[ICEC0179]", "values": [{"measurement": "IC50", "setting": "MCF-7", "value": 35, "unit": "µM"}, {"measurement": "CC50", "setting": "MCF-7", "value": "> 100", "unit": "µM"}, {"measurement": "Growth Inhibition MCF7 TGI", "setting": "MCF-7", "value": ">100", "unit": "µM"}, {"measurement": "IC50", "setting": "CDK4 [1]", "value": "> 1", "unit": "µM"}, {"measurement": "remaining activity at 0.1 µM", "setting": "CDK4 [2]", "value": 99, "unit": "%"}, {"measurement": "IC50", "setting": "CDK4 [2]", "value": "> 1", "unit": "µM"}, {"measurement": "remaining activity at 0.1 µM", "setting": "CDK 5", "value": 94, "unit": "%"}, {"measurement": "remaining activity at 0.1 µM", "setting": "CDK2/cyclin A complex", "value": 52, "unit": "%"}, {"measurement": "remaining activity at 0.1 µM", "setting": "CDK9/cyclin T complex", "value": 97, "unit": "%"}, {"measurement": "LC50 (concentration causing 50% net cell kill)", "setting": "MCF-7 cell line", "value": 16, "unit": "µM"}, {"measurement": "IC (total growth inhibition)", "setting": "MCF-7 cell line", "value": 26, "unit": "µM"}, {"measurement": "IC50", "setting": "MCF-7 cell line", "value": 44, "unit": "µM"}, {"measurement": "IC50", "setting": "CAK (CDK7)", "value": 0.02, "unit": "µM"}]}, {"smiles": "CC(C)c1cnn2c(NCc3ccccc3F)cc(NC(CO)CCCCCCCc3cncnc3)nc12", "note": "(stereo not drawn) [ICEC0168]", "values": [{"measurement": "IC50", "setting": "MCF-7", "value": "> 100", "unit": "µM"}, {"measurement": "CC50", "setting": "MCF-7", "value": 35, "unit": "µM"}, {"measurement": "Growth Inhibition MCF7 TGI", "setting": "MCF-7", "value": ">100", "unit": "µM"}, {"measurement": "IC50", "setting": "CDK4 [1]", "value": "> 1", "unit": "µM"}, {"measurement": "remaining activity at 0.1 µM", "setting": "CDK4 [2]", "value": 96, "unit": "%"}, {"measurement": "IC50", "setting": "CDK4 [2]", "value": "> 1", "unit": "µM"}, {"measurement": "remaining activity at 0.1 µM", "setting": "CDK 5", "value": 97, "unit": "%"}, {"measurement": "remaining activity at 0.1 µM", "setting": "CDK2/cyclin A complex", "value": 83, "unit": "%"}, {"measurement": "IC50", "setting": "CDK2/cyclin A complex; Table 7, mean of three experiments, read-out: CDK2 kinase inhibition in vitro (IC50)", "value": "< 0.1", "unit": "µM"}, {"measurement": "remaining activity at 0.1 µM", "setting": "CDK9/cyclin T complex", "value": 91, "unit": "%"}, {"measurement": "LC50 (concentration causing 50% net cell kill)", "setting": "MCF-7 cell line", "value": 25, "unit": "µM"}, {"measurement": "IC (total growth inhibition)", "setting": "MCF-7 cell line", "value": 55, "unit": "µM"}, {"measurement": "IC50", "setting": "MCF-7 cell line", "value": "> 100", "unit": "µM"}, {"measurement": "IC50", "setting": "CAK (CDK7)", "value": 0.12, "unit": "µM"}]}]}
